From patent US8309552B2, “Immunomodulating heterocyclic compounds” (Medigene AG, priority 2003, dated 2012)

Target: T1, CD80-CD28 interaction (Homo sapiens, UniProt P33681)
T1 sequence (P33681 35-242 limits assumed): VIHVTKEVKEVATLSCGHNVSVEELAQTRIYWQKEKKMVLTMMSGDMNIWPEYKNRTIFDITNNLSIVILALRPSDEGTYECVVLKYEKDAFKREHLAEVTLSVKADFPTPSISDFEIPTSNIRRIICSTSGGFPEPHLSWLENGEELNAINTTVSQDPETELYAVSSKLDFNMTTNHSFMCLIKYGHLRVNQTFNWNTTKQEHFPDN
Assay: Homogenous Time Resolved Fluorescence (HTRF) assay, cell free
Format: binding
Conditions: cell-free HTRF, compound concentration series 100 μM-1.7 nM, 4 hours at room temperature; read-out: Activity (EC50 in the HTRF assay)
Procedure, shortened: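 In pH7.8 Tris-HCl/NaCl buffer with 0.1% BSA, a 100 μM-1.7 nM compound series was incubated for 4 h at room temperature with CD28 and CD80 fusions carrying europium and APC via linker antibodies. Time-resolved signals at 665 and 615 nm were read after 340 nm excitation; a C215 Fab swap defined background. EC50 given as banded classes.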

`NC(=O)CNC(=O)Nc1ccc(-n2[nH]c3c(nnc4ccccc43)c2=O)cc1` [Example 157] and `C=C(C)CNC(=O)Nc1ccc(-n2[nH]c3c(nnc4ccccc43)c2=O)cc1` [Example 165] fall in the same range of EC50: 1 to 10 µM for the first, 1 to 10 µM for the second.

`CCOC(=O)C(C)NC(=O)Nc1ccc(-n2[nH]c3c(nnc4ccccc43)c2=O)cc1` (stereo not drawn) [Example 158] and `CCOC(=O)CC(C)NC(=O)Nc1ccc(-n2[nH]c3c(nnc4ccccc43)c2=O)cc1` (stereo not drawn) [Example 175] fall in the same range of EC50: 1 to 10 µM for the first, 1 to 10 µM for the second.

Compared with `CCCCCCCCCCCCOCCCNC(=O)Nc1ccc(-n2[nH]c3c(nnc4ccccc43)c2=O)cc1` [Example 159], `CCCCOCCCNC(=O)Nc1ccc(-n2[nH]c3c(nnc4ccccc43)c2=O)cc1` [Example 160] is higher in EC50: less than 1 µM for the first, greater than 10 µM for the second. The first is the more potent here.

`CSCCCNC(=O)Nc1ccc(-n2[nH]c3c(nnc4ccccc43)c2=O)cc1` [Example 161] and `CSCCNC(=O)Nc1ccc(-n2[nH]c3c(nnc4ccccc43)c2=O)cc1` [Example 178] fall in the same range of EC50: 1 to 10 µM for the first, 1 to 10 µM for the second.

`CC(C)(C)OC(=O)NCCCCCCNC(=O)Nc1ccc(-n2[nH]c3c(nnc4ccccc43)c2=O)cc1` [Example 163] and `CC(C)(C)OC(=O)NCCCNC(=O)Nc1ccc(-n2[nH]c3c(nnc4ccccc43)c2=O)cc1` [Example 213] fall in the same range of EC50: 1 to 10 µM for the first, 1 to 10 µM for the second.

`CCOC(=O)C1CCCC1NC(=O)Nc1ccc(-n2[nH]c3c(nnc4ccccc43)c2=O)cc1` (stereo not drawn) [Example 164] and `O=C(Nc1ccc(-n2[nH]c3c(nnc4ccccc43)c2=O)cc1)NC1CC2CCC1C2` (stereo not drawn) [Example 199] cannot be ordered by EC50: greater than 10 µM for the first, greater than 10 µM for the second.

`O=C(Nc1ccc(-n2[nH]c3c(nnc4ccccc43)c2=O)cc1)NC1CCOC1=O` (stereo not drawn) [Example 166] and `O=C(NCC1CCCO1)Nc1ccc(-n2[nH]c3c(nnc4ccccc43)c2=O)cc1` (stereo not drawn) [Example 198] fall in the same range of EC50: 1 to 10 µM for the first, 1 to 10 µM for the second.

Compared with `CCC(C)NC(=O)Nc1ccc(-n2[nH]c3c(nnc4ccccc43)c2=O)cc1` (stereo not drawn) [Example 167], `CCCC(C)NC(=O)Nc1ccc(-n2[nH]c3c(nnc4ccccc43)c2=O)cc1` (stereo not drawn) [Example 203] is higher in EC50: 1 to 10 µM for the first, greater than 10 µM for the second. The first is the more potent here.

Compared with `CCN(CC)CCCC(C)NC(=O)Nc1ccc(-n2[nH]c3c(nnc4ccccc43)c2=O)cc1` (stereo not drawn) [Example 168], `CCCCC(C)NC(=O)Nc1ccc(-n2[nH]c3c(nnc4ccccc43)c2=O)cc1` (stereo not drawn) [Example 207] is higher in EC50: less than 1 µM for the first, 1 to 10 µM for the second. The first is the more potent here.

`O=C(Nc1ccc(-n2[nH]c3c(nnc4ccccc43)c2=O)cc1)NC1CN2CCC1CC2` (stereo not drawn) [Example 169] and `CN1CCC(NC(=O)Nc2ccc(-n3[nH]c4c(nnc5ccccc54)c3=O)cc2)CC1` [Example 183] cannot be ordered by EC50: less than 1 µM for the first, less than 1 µM for the second.

First: O=CCCNC(=O)Nc1ccc(-n2[nH]c3c(nnc4ccccc43)c2=O)cc1 [Example 170]
Second: CCCCNC(=O)Nc1ccc(-n2[nH]c3c(nnc4ccccc43)c2=O)cc1 [Example 177]
The EC50 of the first is higher: greater than 10 µM for the first, 1 to 10 µM for the second. The second is the more potent here.

Compared with `CC(O)CCNC(=O)Nc1ccc(-n2[nH]c3c(nnc4ccccc43)c2=O)cc1` (stereo not drawn) [Example 171], `C=C(C)C(=O)OCCNC(=O)Nc1ccc(-n2[nH]c3c(nnc4ccccc43)c2=O)cc1` [Example 209] is higher in EC50: less than 1 µM for the first, greater than 10 µM for the second. The first is the more potent here.

`COc1ccc2[nH]cc(CCNC(=O)Nc3ccc(-n4[nH]c5c(nnc6ccccc65)c4=O)cc3)c2c1` [Example 172] and `O=C(NCCc1ccncc1)Nc1ccc(-n2[nH]c3c(nnc4ccccc43)c2=O)cc1` [Example 184] fall in the same range of EC50: 1 to 10 µM for the first, 1 to 10 µM for the second.

`CC(C)C(C)NC(=O)Nc1ccc(-n2[nH]c3c(nnc4ccccc43)c2=O)cc1` (stereo not drawn) [Example 173] and `COCC(C)NC(=O)Nc1ccc(-n2[nH]c3c(nnc4ccccc43)c2=O)cc1` (stereo not drawn) [Example 174] fall in the same range of EC50: 1 to 10 µM for the first, 1 to 10 µM for the second.

`CCN(CC)CCCNC(=O)c1ccc(-n2[nH]c3c(nnc4ccccc43)c2=O)cc1` [Example 176] and `CCCCN(CCCC)CCNC(=O)Nc1ccc(-n2[nH]c3c(nnc4ccccc43)c2=O)cc1` [Example 206] cannot be ordered by EC50: less than 1 µM for the first, less than 1 µM for the second.

`O=C(NCCCN1CCOCC1)Nc1ccc(-n2[nH]c3c(nnc4ccccc43)c2=O)cc1` [Example 179] and `CC1CCCCN1CCCNC(=O)Nc1ccc(-n2[nH]c3c(nnc4ccccc43)c2=O)cc1` (stereo not drawn) [Example 186] cannot be ordered by EC50: less than 1 µM for the first, less than 1 µM for the second.

`O=C(NCCSCc1c(F)cccc1Cl)Nc1ccc(-n2[nH]c3c(nnc4ccccc43)c2=O)cc1` [Example 180] and `O=C(NCCSCc1ccccc1)Nc1ccc(-n2[nH]c3c(nnc4ccccc43)c2=O)cc1` [Example 200] cannot be ordered by EC50: greater than 10 µM for the first, greater than 10 µM for the second.

Compared with `CCCCCC(C)NC(=O)Nc1ccc(-n2[nH]c3c(nnc4ccccc43)c2=O)cc1` (stereo not drawn) [Example 181], `CCC(CC)NC(=O)Nc1ccc(-n2[nH]c3c(nnc4ccccc43)c2=O)cc1` [Example 187] is lower in EC50: greater than 10 µM for the first, 1 to 10 µM for the second.

Compared with `CN(C)CC(C)(C)CNC(=O)Nc1ccc(-n2[nH]c3c(nnc4ccccc43)c2=O)cc1` [Example 185], `CC(C)(C)OC(=O)CNC(=O)Nc1ccc(-n2[nH]c3c(nnc4ccccc43)c2=O)cc1` [Example 205] is higher in EC50: less than 1 µM for the first, greater than 10 µM for the second.

First: O=C(NCCCCc1ccccc1)Nc1ccc(-n2[nH]c3c(nnc4ccccc43)c2=O)cc1 [Example 188]
Second: O=C(NCCNCc1ccccc1)Nc1ccc(-n2[nH]c3c(nnc4ccccc43)c2=O)cc1 [Example 193]
The EC50 of the first is higher: greater than 10 µM for the first, less than 1 µM for the second.

First: CCOC(=O)CCC(NC(=O)Nc1ccc(-n2[nH]c3c(nnc4ccccc43)c2=O)cc1)C(=O)OCC (stereo not drawn) [Example 189]
Second: CCOC(=O)CCCNC(=O)Nc1ccc(-n2[nH]c3c(nnc4ccccc43)c2=O)cc1 [Example 192]
The EC50 of the first is lower: 1 to 10 µM for the first, greater than 10 µM for the second.

`O=C(Nc1ccc(-n2[nH]c3c(nnc4ccccc43)c2=O)cc1)NC1CCC(O)CC1` (stereo not drawn) [Example 190] and `O=C(Nc1ccc(-n2[nH]c3c(nnc4ccccc43)c2=O)cc1)NC1CCOC1=O` (stereo not drawn) [Example 195] fall in the same range of EC50: 1 to 10 µM for the first, 1 to 10 µM for the second.

`CC(NC(=O)Nc1ccc(-n2[nH]c3c(nnc4ccccc43)c2=O)cc1)C1CCCCC1` (stereo not drawn) [Example 194] and `O=C(NCC1CCCCCC1)Nc1ccc(-n2[nH]c3c(nnc4ccccc43)c2=O)cc1` [Example 204] cannot be ordered by EC50: greater than 10 µM for the first, greater than 10 µM for the second.

`O=C(NCCc1ccccn1)Nc1ccc(-n2[nH]c3c(nnc4ccccc43)c2=O)cc1` [Example 196] and `O=C(NCCOc1ccccc1)Nc1ccc(-n2[nH]c3c(nnc4ccccc43)c2=O)cc1` [Example 208] fall in the same range of EC50: 1 to 10 µM for the first, 1 to 10 µM for the second.

First: O=C(Nc1ccc(-n2[nH]c3c(nnc4ccccc43)c2=O)cc1)NC1CCCN(Cc2ccccc2)C1 (stereo not drawn) [Example 197]
Second: O=C(Nc1ccc(-n2[nH]c3c(nnc4ccccc43)c2=O)cc1)NC1CCN(Cc2ccccc2)C1 (stereo not drawn) [Example 214]
The EC50 of the first is higher: 1 to 10 µM for the first, less than 1 µM for the second. The second is the more potent here.

Going from `CC1C(NC(=O)Nc2ccc(-n3[nH]c4c(nnc5ccccc54)c3=O)cc2)CC2CC1C2(C)C` (stereo not drawn) [Example 201] to `COCC(C)NC(=O)Nc1ccc(-n2[nH]c3c(nnc4ccccc43)c2=O)cc1` (stereo not drawn) [Example 210], the EC50 falls from greater than 10 µM to less than 1 µM.

`CC1C(NC(=O)Nc2ccc(-n3[nH]c4c(nnc5ccccc54)c3=O)cc2)CC2CC1C2(C)C` (stereo not drawn) [Example 202] and `O=C(Nc1ccc(-n2[nH]c3c(nnc4ccccc43)c2=O)cc1)NC1CCCC1OCc1ccccc1` (stereo not drawn) [Example 211] cannot be ordered by EC50: greater than 10 µM for the first, greater than 10 µM for the second.

`O=C(Nc1ccc(-n2[nH]c3c(nnc4ccccc43)c2=O)cc1)NC1CCCCC1OCc1ccccc1` (stereo not drawn) [Example 212] and `CCCCOC(=O)CNC(=O)Nc1ccc(-n2[nH]c3c(nnc4ccccc43)c2=O)cc1` [Example 215] cannot be ordered by EC50: greater than 10 µM for the first, greater than 10 µM for the second.

With `CCCCCOC(=O)CNC(=O)Nc1ccc(-n2[nH]c3c(nnc4ccccc43)c2=O)cc1` [Example 216] the EC50 was greater than 10 µM.
